Results published in ChEMBL document CHEMBL1201862, “PubChem BioAssay data set” (2004).
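Grown in 96-well plates, cells were treated for 48 hours with each compound at five concentrations. Insufficient inhibition: endpoint recorded as highest concentration tested. GI50 = concentration required for 50% inhibition of growth.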 Active and inactive are the calls of the source. Cut-off read from the data, not from the text of the source: active = GI50 up to about 1.1 µM and inactive = higher.

Assays:
Test in all cases: inhibition of tumour cell growth, NCI panel, 48 h
[1] = tested on: UO-31
[2] = tested on: A498
[3] = tested on: SNB-19
[4] = tested on: NCI-H23
[5] = tested on: COLO 205
[6] = tested on: M14
[7] = tested on: RPMI-8226
[8] = tested on: EKVX
[9] = tested on: HCT-15
[10] = tested on: TK-10
[11] = tested on: MDA-N
[12] = tested on: CAKI-1
[13] = tested on: UACC-62
[14] = tested on: LXFL 529
[15] = tested on: SF-295
[16] = tested on: HOP-62
[17] = tested on: NCI/ADR-RES
[18] = tested on: DU-145
[19] = tested on: HT-29
[20] = tested on: KM-20L2

Row | Compound | GI50 [1] | GI50 [2] | GI50 [3] | GI50 [4] | GI50 [5] | GI50 [6] | GI50 [7] | GI50 [8] | GI50 [9] [µM] | GI50 [10] | GI50 [11] | GI50 [12] | GI50 [13] | GI50 [14] | GI50 [15] | GI50 [16] | GI50 [17] | GI50 [18] | GI50 [19] | GI50 [20]
1 | NC(=O)c1cc(N2CC2)c([N+](=O)[O-])cc1[N+](=O)[O-] [TRETAZICAR] | > 100 µM (inactive) | > 66.7 µM (inactive) | > 100 µM (inactive) | > 100 µM (inactive) | > 100 µM (inactive) | > 100 µM (inactive) | > 100 µM (inactive) | > 100 µM (inactive) | > 145 | > 200 µM (inactive) | > 200 µM (inactive) | > 100 µM (inactive) | > 100 µM (inactive) | > 100 µM (inactive) | > 100 µM (inactive) | > 100 µM (inactive) | > 200 µM (inactive) | > 200 µM (inactive) | > 100 µM (inactive) | > 100 µM (inactive)
2 | O=CN/C=C/c1cccc(O)c1 | 54.2 µM (inactive) | > 64.3 µM (inactive) | 70.1 µM (inactive) | 52.4 µM (inactive) | > 77.3 µM (inactive) | 61.9 µM (inactive) | > 71.9 µM (inactive) | 69.2 µM (inactive) | 72.1 | 88.3 µM (inactive) | 46 µM (inactive) | > 61.5 µM (inactive) | 46.1 µM (inactive) | > 100 µM (inactive) | 48.8 µM (inactive) | 39.3 µM (inactive) | 52.2 µM (inactive) | 57.5 µM (inactive) | 50.4 µM (inactive) | > 100 µM (inactive)
